Source: patent publication US20100286247A1, “Methods of Protection from Oxidative Stress” (Trustees of Boston University, priority 2005, published 2010)
{P} = phosphate

Assays:
[1] = test system: total p53 protein; conditions: 40 μM, published reports; cited from earlier work
[2] = test system: p21/Cip1/Waf1 protein; test: Western blot of p21/Cip1/Waf1; format: cell-based, human; conditions: by 36-48 hours, sustained through 72 hours; 40 μM TO, 100 μM pTT
Description: Western blot analysis of proteins from cells treated and harvested in parallel with DCF time course studies was conducted as described above. Membranes were reacted with antibodies to total p53/DO-1 (1:1000 dilution, Oncogene Research Products, Cambridge, Mass.), anti-phoso-p53 (Ser-15) (1:1000 dilution, Cell Signaling Technology, Beverly, Mass.), and p21/Cip1/Waf1 (1:500 dilution, Transduction Laboratories, Lexington, Ky.), followed by appropriate secondary antibodies diluted 1:2000.

[3] = test system: melanoma tumors; conditions: SCID mouse model; cited from earlier work
[4] = test system: primary human newborn dermal fibroblasts; test: MTS viability assay; format: cell-based; conditions: 100 μM pTT
Text: The CellTiter 96 Aqueous One Solution Cell Proliferation Assay, a version of the MTT assay, (Promega Corp., Madison, Wis.) is generally used as a eukaryotic cell viability and proliferation assay.^180 It has also been used to measure mitochondrial dysfunction,^181 because the assay measures the reduction of a tetrazolium compound [3-(4,5-dimethylthiazol-2-yl)-5-(-3-carboxymethoxyphenyl)-2-(4-sulfophenyl)-2H-tetrazolium] to formazan in viable mitochondria. The MTS assay utilizes a water-soluble form of the tetrazolium reagent in the original MIT assay. The formazan product is measured by absorbance at 492 nm.
Equal numbers of cells were seeded into 96-well tissue culture plates, and paired wells were treated once with pTT or diluent control as described above. At 24, 48 and 72 hours cell viability was assayed using the MTS assay and an ELIZA plate reader (Tecan Spectra II Model F039002, Austria) to measure absorbance at 492 nm. The experiments were conducted in parallel with cell yield Coulter counts, using the same donor cells.
(§1) Cell yields of pTT-treated fibroblasts were compared to diluent using 2-way ANOVA and a total of four different experiments, to identify significant difference between treatment groups as a function of cell number and time. The parallel MTS assay also utilized the 2-way ANOVA, to compare changes in OD at 492 nm as a function of time and treatment modality.

[5] = test system: primary human newborn dermal fibroblasts; test: Determination of cell yields (Coulter counts); format: cell-based
Description: (§2) Cell culture followed previously published methods.^92 Primary human newborn dermal fibroblasts were cultured from neonatal circumcised foreskin specimens. The skin samples were treated overnight in a 0.25% trypsin solution at 4° C. to separate the epidermis from the dermis. The separated dermis was then cut into pieces and plated onto etched plastic tissue culture dishes. Primary culture medium consisted of DMEM supplemented with 10% bovine CS, 50 U/ml penicillin and 50 μg/ml streptomycin sulfate. […] Secondary culture medium consisted of DMEM supplemented with 10% CS.
Equal numbers of fibroblasts were seeded into 32 mm culture dishes, and paired dishes were treated with pTT or diluent control as described above. At 24, 48 and 72 hours of treatment, the cells were harvested by trypsinization and counted in an automated cell counter (Coulter Z Series, Beckman Coulter, Inc., Fullerton, Calif.). The experiments were conducted in parallel with the MTS assay, using the same donor cells.
as §1, with “modality. […]” for “modality.”

[6] = 100 μM pTT, in vitro and in mouse models in vivo; cited from earlier work
[7] = test system: SOD2 mRNA; test: Northern blot analysis of antioxidant enzyme mRNA: SOD2; format: cell-based, human; conditions: 100 μM pTT, 8-72 hours, three donors
Description: as §2
Purified 5′-phosphorylated thymidine dinucleotides (pTT) (Midland Certified Reagents, Inc., Texas) purified by gel filtration and analyzed by mass spectroscopy, were obtained in lyophilized form. […] The stock solution was syringe filter-sterilized through a 0.2 μm pore filter and spectrophotometrically analyzed (absorbance at 260 and 280 nm) to determine the concentration, and frozen in aliquots at −20° C. […]
Cells were harvested in Trizol (Gibco BRL, Gaithersburg, Md.) and stored at −70° C. […] RNA solutions were measured by spectrophotometer readings at 260 nm and 280 nm to determine concentration and purity. […]
Northern and western films as well as stained membranes and pictures of ethidium bromide-stained gels were digitally scanned and analyzed by densitometry. […]

[8] = test system: S91 melanoma cells, cultured melanocytes, guinea pig skin; conditions: solutions of pTT; cited from earlier work

Row | Substance | time to p53 induction [1] [h] | p21 protein response, TO vs pTT [2] | melanoma tumors [3] | cell viability (MTS formazan absorbance) vs diluent ([4]; 24-72 hours, 2-way ANOVA p=0.2588) | mitochondrial reductive activity per cell (MTS absorbance per Coulter-counted cell) ([4]; p=0.0093) | rate of fibroblast growth (cell yields) during treatment vs diluent ([5]; 100 μM pTT, 24-72 hours, 2-way ANOVA p=0.0079) | growth after replating in regular medium vs diluent-pretreated cells ([5]; 72 hours pretreatment with 100 μM pTT, no H2O2, p=0.0006) | nucleotide excision DNA repair and UV resistance [6] | SOD2 mRNA level compared to diluent [7] | melanin production [8]
1 | pGTTAGGGTTAG (5' {P}, sugars by position and backbone not given here) [TO] | ≤ 8 | greater than to pTT | reduced melanoma tumors | – | – | – | – | – | – | –
2 | 5′-phosphorylated thymidine dinucleotides [pTT] | – | – | – | no significant decrease in cell viability | significant increase in mitochondrial reductive activity per cell | significantly decreased | significantly stimulated growth | stimulates enhanced nucleotide excision DNA repair and resistance to subsequent UV irradiation | no difference between pTT- and diluent-treated cells | enhanced melanin production
